Values quoted from earlier work in patent US7858602B2, “Therapeutic and prophylactic uses of cell specific carbonic anhydrase enzymes in treating aging disorders due to oxidative stress and as growth factors of stem cells” (priority 2000, dated 2010).

Key:
[1] = system: human synovial cells and synovial tissue cultures
[2] = system: carbonic anhydrase VI (CA-VI); conditions: orally administered, patients with CA-VI deficiency
[3] = system: CA; conditions: in vitro and in vivo
[4] = system: gastric acid output
[5] = system: sympathetic nerve terminals
[6] = system: muscle fibroblast; conditions: exposure to CA III
[7] = system: synovial connective tissue fibroblast

For `CNCCC(Oc1ccc(C(F)(F)F)cc1)c1ccccc1` (stereo not drawn) [Fluoxetine], the “Prostaglandin PGE2 production” value [1] is given as “inhibit”, the hyaluronic acid production [1] is given as “inhibit” and the nitric oxide production [1] is given as “inhibit”.

In the case of `[Zn]` [Zinc], the “stimulation of synthesis/secretion of CA-VI, treatment result” value [2] is given as “successful”.

In the case of `CN(C)CCC=C1c2ccccc2CCc2ccccc21` [aminitriptylline], the “Prostaglandin PGE2 production” value [1] is listed as “inhibit”, the hyaluronic acid production [1] is listed as “inhibit” and the nitric oxide production [1] is listed as “inhibit”.

For `CCCCC[C@H](O)/C=C/[C@H]1[C@H](O)CC(=O)[C@@H]1CCCCCCC(=O)O` [prostaglandin E1], the “effect on CA” value [3] is given as “inhibit”.

For `CCCCC[C@H](O)/C=C/[C@H]1[C@H](O)CC(=O)[C@@H]1C/C=C\CCCC(=O)O` [prostaglandin E2, Prostaglandin E2], the gastric acid output [4] is given as “inhibit”, the “effect on CA” value [3] is given as “inhibit” and the “egress of norepinephrine from sympathetic nerve terminals” value [5] is given as “inhibits”.

B1: CA III: Carbonic anhydrase III isolated from adult human skeletal muscle (protein, UniProt P07451 2-260, looked up)
Carbonic anhydrase 3: AKEWGYASHNGPDHWHELFPNAKGENQSPVELHTKDIRHDPSLQPWSVSYDGGSAKTILNNGKTCRVVFDDTYDRSMLRGGPLPGPYRLRQFHLHWGSSDDHGSEHTVDGVKYAAELHLVHWNPKYNTFKEALKQRDGIAVIGIFLKIGHENGEFQIFLDALDKIKTKGKEAPFTKFDPSCLFPACRDYWTYQGSFTTPPCEECIVWLLLKEPMTVSSDQMAKLRSLLSSAENEPPVPLVSNWRPPQPINNRVVRASFK
For B1, the “increase in muscle fibroblast” value [6] is given as 20-45%, the “increase of synovial connective tissue fibroblast on exposure to CA III” value ([7]; cell culture) is given as 2 to 12 fold and the hyaluronic acid synthesis ([7]; cell culture, exposure to CA III) is given as “increased”. For the same molecule, the “increase in synovial fibroblasts” value ([7]; exposure to CA III) was 16-70%.
